Experimental data reported in US8354436B2 (4SC Discovery GmbH, priority 2011, dated 2013).
pIC50: −log10 of the molar value. Like-named read-outs stand apart in the source and are kept apart here.

Legend:
Type in all cases: cell-based
Details in all cases: 48 hours
IL-17FF = IL-17FF production by PHA-stimulated human PBMC (human IL-17F ELI-Pair)
Summary of the method: (§1)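 Inhibition of PHA-driven (2 μg/ml) cytokine release from human PBMC at 1×10^5 cells/well, 48 h compound exposure. IC50 from semilog titrations.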

[1] = test system: PBMC from healthy human donors; experiment: T cell proliferation assay (PHA-stimulated human PBMC, BrdU ELISA)
Summary of the method: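 Proliferation was quantified by BrdU ELISA 48 hours after starting culture of 1×10⁵ human PBMC per well with test compound and 2 μg/ml phytohaemagglutinin. Cells came from healthy donors via Ficoll separation and were kept in RPMI1640 with 10% dialysed heat-inactivated FCS.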

IFN-γ = IFN-γ production by PHA-stimulated human PBMC (OptEIA human IFN-g ELISA)
Summary of the method: as §1

[2] = PHA-stimulated human PBMC, column B, read-out: IC50 (IL-17FF)
[3] = PHA-stimulated human PBMC, column D, read-out: IC50 (Tcell proliferation)
[4] = PHA-stimulated human PBMC, column C, read-out: IC50 (IFNγ)

| SMILES | pIC50 (IL-17FF; [2]) | pIC50 (IFN-γ; [4]) | pIC50 (IL-17FF; human PBMC, 2 μg/ml PHA, read-out: B: IC50 (IL-17FF)) | pIC50 (IFN-γ; human PBMC, 2 μg/ml PHA, read-out: C: IC50 (IFNγ)) | pIC50 [1, 3] | pIC50 ([1]; human PBMC, 2 μg/ml PHA, read-out: D: IC50 (Tcell proliferation)) |
| --- | --- | --- | --- | --- | --- | --- |
| O=C(c1c(-c2c(F)cccc2Cl)noc1-c1cnn(-c2cccc(F)c2)c1C(F)(F)F)N1CCOCC1 [Example I-127, (3-(2-chloro-6-fluorophenyl)-5-(1-(3-fluorophenyl)-5-(trifluoromethyl)-1H-pyrazol-4-yl)isoxazol-4-yl)(morpholino)methanone] | 6.00 to 7.00 | 6.00 to 7.00 |  |  | 5.00 to 6.00 |  |
| CNC(=O)c1c(-c2c(F)cccc2Cl)noc1-c1cnn(-c2ccccc2)c1C(F)(F)F [Example I-59, 3-(2-chloro-6-fluorophenyl)-N-methyl-5-(1-phenyl-5-(trifluoromethyl)-1H-pyrazol-4-yl)isoxazole-4-carboxamide] | 6.00 to 7.00 | 6.00 to 7.00 |  |  | 6.00 to 7.00 |  |
| Fc1ccccc1-n1ncc(-c2onc(-c3c(F)cccc3Cl)c2-c2cnco2)c1C(F)(F)F [Example B-28, 3-(2-chloro-6-fluorophenyl)-5-(1-(2-fluorophenyl)-5-(trifluoromethyl)-1H-pyrazol-4-yl)-4-(oxazol-5-yl)isoxazole] |  |  | 6.00 to 7.00 | 6.00 to 7.00 |  | 6.00 to 7.00 |
| NC(=O)c1c(-c2c(F)cccc2Cl)noc1-c1cnn(-c2cccc(Cl)c2)c1C(F)(F)F [Example I-121, 3-(2-chloro-6-fluorophenyl)-5-(1-(3-chlorophenyl)-5-(trifluoromethyl)-1H-pyrazol-4-yl)isoxazole-4-carboxamide] | 5.00 to 6.00 | 5.00 to 6.00 |  |  | 5.00 to 6.00 |  |
| CCOC(=O)c1c(-c2ccccc2F)noc1-c1cnn(-c2cccc(F)c2)c1C(F)(F)F [Example I-90, ethyl 3-(2-fluorophenyl)-5-(1-(3-fluorophenyl)-5-(trifluoromethyl)-1H-pyrazol-4-yl)isoxazole-4-carboxylate] | 6.00 to 7.00 | 7.00 to 8.00 |  |  | 6.00 to 7.00 |  |
| COC(=O)c1c(-c2c(F)cccc2Cl)noc1-c1cnn(-c2c(Cl)cccc2Cl)c1C(F)(F)F [Example I-70, methyl 3-(2-chloro-6-fluorophenyl)-5-(1-(2,6-dichlorophenyl)-5-(trifluoromethyl)-1H-pyrazol-4-yl)isoxazole-4-carboxylate] | 6.00 to 7.00 | 6.00 to 7.00 |  |  | 6.00 to 7.00 |  |
| NC(=S)c1c(-c2c(F)cccc2Cl)noc1-c1cnn(-c2cccc(Cl)c2)c1C(F)(F)F [Example I-125, 3-(2-chloro-6-fluorophenyl)-5-(1-(3-chlorophenyl)-5-(trifluoromethyl)-1H-pyrazol-4-yl)isoxazole-4-carbothioamide] | 6.00 to 7.00 | 6.00 to 7.00 |  |  | 5.00 to 6.00 |  |
| COC(=O)c1c(-c2c(F)cccc2Cl)noc1-c1cnn(-c2cc(F)cc(F)c2)c1C(F)(F)F [Example I-50, methyl 3-(2-chloro-6-fluorophenyl)-5-(1-(3,5-difluorophenyl)-5-(trifluoromethyl)-1H-pyrazol-4-yl)isoxazole-4-carboxylate] | > 8.00 | > 8.00 |  |  | > 8.00 |  |

More lines, main results first:

| pIC50 (IL-17FF; [2]) | pIC50 (IFN-γ; [4]) | pIC50 (IL-17FF; human PBMC, 2 μg/ml PHA, read-out: B: IC50 (IL-17FF)) | pIC50 (IFN-γ; human PBMC, 2 μg/ml PHA, read-out: C: IC50 (IFNγ)) | SMILES | pIC50 [1, 3] | pIC50 ([1]; human PBMC, 2 μg/ml PHA, read-out: D: IC50 (Tcell proliferation)) |
| --- | --- | --- | --- | --- | --- | --- |
| > 8.00 | > 8.00 |  |  | CCOC(=O)c1c(-c2c(F)cccc2Cl)noc1-c1cnn(-c2ccccn2)c1C(F)(F)F [IB-84, ethyl 3-(2-chloro-6-fluorophenyl)-5-(1-(pyridin-2-yl)-5-(trifluoromethyl)-1H-pyrazol-4-yl)isoxazole-4-carboxylate] | > 8.00 |  |
| 7.00 to 8.00 | > 8.00 |  |  | CCOC(=O)c1c(-c2ccncc2F)noc1-c1cnn(-c2cccc(NC(C)=O)c2)c1C(F)(F)F [IB-6, ethyl 5-(1-(3-acetamidophenyl)-5-(trifluoromethyl)-1H-pyrazol-4-yl)-3-(3-fluoropyridin-4-yl)isoxazole-4-carboxylate] | 6.00 to 7.00 |  |
| > 8.00 | > 8.00 |  |  | CCOC(=O)c1c(-c2c(F)cccc2Cl)noc1-c1cnn(-c2ccncc2)c1C(F)(F)F [IB-38, ethyl 3-(2-chloro-6-fluorophenyl)-5-(1-(pyridin-4-yl)-5-(trifluoromethyl)-1H-pyrazol-4-yl)-isoxazole-4-carboxylate] | > 8.00 |  |
